Read-outs that look alike come from different tables or passages of the source.
Assays:
Type in all cases: in vivo
Tetranychus urticae = Tetranychus urticae (two-spotted spider mite): feeding/contact activity; conditions: 192 h
Experimental: Bean leaf discs on agar in 24-well microtiter plates were sprayed with aqueous test solutions prepared from 10'000 ppm DMSO stock solutions. After drying the leaf discs were infested with a mite population of mixed ages. The samples were assessed for mortality on mixed population (mobile stages) 8 days after infestation.

Myzus persicae = Myzus persicae (green peach aphid): feeding/contact activity; conditions: 144 h
Experimental: (§1) Sunflower leaf discs were placed onto agar in a 24-well microtiter plate and sprayed with aqueous test solutions prepared from 10'000 ppm DMSO stock solutions. After drying, the leaf discs were infested with an aphid population of mixed ages. The samples were assessed for mortality 6 days after infestation.

Plutella xylostella = Plutella xylostella (diamond back moth), artificial diet; conditions: 120 h, read-out: effect in at least one of the two categories (mortality or growth inhibition); for percent effect (mortality or growth inhibition) at 200 ppm: application rate 200 ppm, L2 larvae, 5 days after infestation
Procedure, shortened: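 Artificial diet in 24-well plates treated with aqueous test solutions made from 10'000 ppm DMSO stocks, dried, then infested with L2 larvae (10 to 15 per well). Mortality and growth inhibition scored against untreated samples 5 days after infestation; activity cut-off at least 80% in either category at 200 ppm.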

Spodoptera littoralis = Spodoptera littoralis (Egyptian cotton leaf worm), sprayed cotton leaf discs; conditions: foliar, 72 h, read-out: control (mortality, anti-feeding effect, growth inhibition)
Procedure, shortened: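 Cotton leaf discs on agar sprayed with aqueous test solutions made from 10'000 ppm DMSO stock; after drying, infested with five L1 larvae. Mortality, anti-feeding and growth inhibition scored versus untreated samples 3 days after infestation; control counted when any category exceeds untreated.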

Thrips tabaci = Thrips tabaci (onion thrips): feeding/contact activity; conditions: 144 h
Experimental: as §1, with “on” for “onto”, “in” for “in a”, “plates” for “plate”, “drying” for “drying,”, “a Thrips” for “an aphid”

Diabrotica balteata = Diabrotica balteata (corn root worm), sprayed maize sprouts; conditions: 96 h, read-out: effect in at least one of the two categories (mortality or growth inhibition); for percent effect (mortality or growth inhibition) at 200 ppm: application rate 200 ppm, L2 larvae, 4 days after infestation
Procedure, shortened: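 Maize sprouts on agar sprayed with aqueous dilutions of DMSO stocks, dried, then infested with L2 larvae (6–10 per well). Mortality and growth inhibition scored against untreated controls 4 days after infestation, at 200 ppm application rate.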

Euschistus heros = Euschistus heros (neotropical brown stink bug), sprayed soybean leaves; conditions: 120 h, read-out: effect in at least one of the two categories (mortality or growth inhibition); for percent effect (mortality or growth inhibition) at 200 ppm: application rate 200 ppm, N2 nymphs, 5 days after infestation
Procedure, shortened: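 Soybean leaves on agar sprayed with aqueous dilutions of DMSO stocks, dried, then infested with N2 nymphs. Mortality and growth inhibition scored against untreated samples 5 days after infestation; application rate 200 ppm.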

[1] = application rate 200 ppm, mixed population (mobile stages), 8 days after infestation, read-out: mortality
[2] = application rate 200 ppm, aphid population of mixed ages, 6 days after infestation, read-out: mortality
[3] = application rate 200 ppm, L1 larvae, 3 days after infestation
[4] = application rate 200 ppm, Thrips population of mixed ages, 6 days after infestation, read-out: mortality

CC(=O)N(C)S(=O)(=O)N1CC(NC(=O)c2ccc(C3=NO[C@@](c4cc(Cl)c(F)c(Cl)c4)(C(F)(F)F)C3)cc2C)CO1 (stereo partly drawn) [Compound A162]
≥ 80%: mortality at 200 ppm (Tetranychus urticae; [1]) | mortality at 200 ppm (Myzus persicae; [2]) | percent effect (mortality or growth inhibition) at 200 ppm (Plutella xylostella) | mortality at 200 ppm (Spodoptera littoralis; [3]) | mortality at 200 ppm (Thrips tabaci; [4]) | percent effect (mortality or growth inhibition) at 200 ppm (Diabrotica balteata) | percent effect (mortality or growth inhibition) at 200 ppm (Euschistus heros)

Cc1cc(C2=NO[C@](c3cc(Cl)c(F)c(Cl)c3)(C(F)(F)F)C2)ccc1C(=O)N[C@H]1CON(S(=O)(=O)CF)C1 [Compound A211]
≥ 80%: mortality at 200 ppm (Tetranychus urticae; [1]) | mortality at 200 ppm (Myzus persicae; [2]) | percent effect (mortality or growth inhibition) at 200 ppm (Plutella xylostella) | mortality at 200 ppm (Spodoptera littoralis; [3]) | mortality at 200 ppm (Thrips tabaci; [4]) | percent effect (mortality or growth inhibition) at 200 ppm (Diabrotica balteata) | percent effect (mortality or growth inhibition) at 200 ppm (Euschistus heros)

CNS(=O)(=O)N1C[C@@H](NC(=O)c2ccc(C3=NO[C@](c4cc(Cl)c(C(F)F)c(Cl)c4)(C(F)(F)F)C3)cc2C)CO1 [Compound A206, 4-[(5R)-5-[3,5-dichloro-4-(difluoromethyl)phenyl]-5-(trifluoromethyl)-4H-1,2-oxazol-3-yl]-2-methyl-N-[(4R)-2-(methylsulfamoyl)-1,2-oxazolidin-4-yl]benzamide]
≥ 80%: mortality at 200 ppm (Tetranychus urticae; [1]) | mortality at 200 ppm (Myzus persicae; [2]) | percent effect (mortality or growth inhibition) at 200 ppm (Plutella xylostella) | mortality at 200 ppm (Spodoptera littoralis; [3]) | mortality at 200 ppm (Thrips tabaci; [4]) | percent effect (mortality or growth inhibition) at 200 ppm (Diabrotica balteata) | percent effect (mortality or growth inhibition) at 200 ppm (Euschistus heros)

Cc1cc(C2=NO[C@@](c3cc(Cl)cc(C(F)(F)F)c3)(C(F)(F)F)C2)ccc1C(=O)N[C@@H]1CON(S(=O)(=O)C(F)F)C1 [Compound A233]
≥ 80%: mortality at 200 ppm (Tetranychus urticae; [1]) | mortality at 200 ppm (Myzus persicae; [2]) | percent effect (mortality or growth inhibition) at 200 ppm (Plutella xylostella) | mortality at 200 ppm (Spodoptera littoralis; [3]) | mortality at 200 ppm (Thrips tabaci; [4]) | percent effect (mortality or growth inhibition) at 200 ppm (Diabrotica balteata) | percent effect (mortality or growth inhibition) at 200 ppm (Euschistus heros)

Cc1cc(C2=NO[C@](c3cc(Cl)cc(Cl)c3)(C(F)(F)F)C2)ccc1C(=O)N[C@@H]1CON(S(=O)(=O)C(F)F)C1 [Compound A232, 4-[(5R)-5-(3,5-dichlorophenyl)-5-(trifluoromethyl)-4H-1,2-oxazol-3-yl]-N-[(4S)-2-(difluoromethylsulfonyl)-1,2-oxazolidin-4-yl]-2-methylbenzamide]
≥ 80%: mortality at 200 ppm (Tetranychus urticae; [1]) | mortality at 200 ppm (Myzus persicae; [2]) | percent effect (mortality or growth inhibition) at 200 ppm (Plutella xylostella) | mortality at 200 ppm (Spodoptera littoralis; [3]) | mortality at 200 ppm (Thrips tabaci; [4]) | percent effect (mortality or growth inhibition) at 200 ppm (Diabrotica balteata) | percent effect (mortality or growth inhibition) at 200 ppm (Euschistus heros)

Cc1cc(C2=NO[C@@](c3cc(Cl)c(F)c(Cl)c3)(C(F)(F)F)C2)ccc1C(=O)N[C@H]1CON(S(=O)(=O)C(F)F)C1 [Compound A226, 4-[(5S)-5-(3,5-dichloro-4-fluorophenyl)-5-(trifluoromethyl)-4H-1,2-oxazol-3-yl]-N-[(4R)-2-(difluoromethylsulfonyl)-1,2-oxazolidin-4-yl]-2-methylbenzamide]
≥ 80%: mortality at 200 ppm (Tetranychus urticae; [1]) | mortality at 200 ppm (Myzus persicae; [2]) | percent effect (mortality or growth inhibition) at 200 ppm (Plutella xylostella) | mortality at 200 ppm (Spodoptera littoralis; [3]) | mortality at 200 ppm (Thrips tabaci; [4]) | percent effect (mortality or growth inhibition) at 200 ppm (Diabrotica balteata) | percent effect (mortality or growth inhibition) at 200 ppm (Euschistus heros)

Cc1cc(C2=NO[C@@](c3cc(Cl)c(F)c(Cl)c3)(C(F)(F)F)C2)ccc1C(=O)N[C@@H]1CON(S(=O)(=O)N2CCOCC2)C1 [Compound A188, 4-[(5S)-5-(3,5-dichloro-4-fluorophenyl)-5-(trifluoromethyl)-4H-1,2-oxazol-3-yl]-2-methyl-N-[(4S)-2-morpholin-4-ylsulfonyl-1,2-oxazolidin-4-yl]benzamide]
≥ 80%: mortality at 200 ppm (Tetranychus urticae; [1]) | mortality at 200 ppm (Myzus persicae; [2]) | percent effect (mortality or growth inhibition) at 200 ppm (Plutella xylostella) | mortality at 200 ppm (Spodoptera littoralis; [3]) | mortality at 200 ppm (Thrips tabaci; [4]) | percent effect (mortality or growth inhibition) at 200 ppm (Diabrotica balteata) | percent effect (mortality or growth inhibition) at 200 ppm (Euschistus heros)

Cc1cc(C2=NO[C@@](c3ccc(F)c(C(F)(F)F)c3)(C(F)(F)F)C2)ccc1C(=O)N[C@H]1CON(S(C)(=O)=O)C1 [Compound A183]
≥ 80%: mortality at 200 ppm (Tetranychus urticae; [1]) | mortality at 200 ppm (Myzus persicae; [2]) | percent effect (mortality or growth inhibition) at 200 ppm (Plutella xylostella) | mortality at 200 ppm (Spodoptera littoralis; [3]) | mortality at 200 ppm (Thrips tabaci; [4]) | percent effect (mortality or growth inhibition) at 200 ppm (Diabrotica balteata) | percent effect (mortality or growth inhibition) at 200 ppm (Euschistus heros)

Cc1cc(C2=NO[C@](c3cc(Cl)c(F)c(Cl)c3)(C(F)(F)F)C2)ccc1C(=O)N[C@H]1CON(S(=O)(=O)NC(=O)OC(C)(C)C)C1 [Compound A209, tert-butyl N-[[(4R)-4-[[4-[(5R)-5-(3,5-dichloro-4-fluorophenyl)-5-(trifluoromethyl)-4H-1,2-oxazol-3-yl]-2-methylbenzoyl]amino]-1,2-oxazolidin-2-yl]sulfonyl]carbamate]
≥ 80%: mortality at 200 ppm (Tetranychus urticae; [1]) | mortality at 200 ppm (Myzus persicae; [2]) | percent effect (mortality or growth inhibition) at 200 ppm (Plutella xylostella) | mortality at 200 ppm (Spodoptera littoralis; [3]) | mortality at 200 ppm (Thrips tabaci; [4]) | percent effect (mortality or growth inhibition) at 200 ppm (Diabrotica balteata) | percent effect (mortality or growth inhibition) at 200 ppm (Euschistus heros)

Cc1cc(C2=NO[C@](c3cc(Cl)cc(C(F)(F)F)c3)(C(F)(F)F)C2)ccc1C(=O)N[C@H]1CON(S(=O)(=O)F)C1 [Compound A219]
≥ 80%: mortality at 200 ppm (Tetranychus urticae) | mortality at 200 ppm (Myzus persicae) | percent control (mortality or growth inhibition) at 200 ppm (Plutella xylostella) | mortality at 200 ppm (Spodoptera littoralis) | mortality at 200 ppm (Thrips tabaci) | percent control (mortality or growth inhibition) at 200 ppm (Diabrotica balteata) | percent control (mortality or growth inhibition) at 200 ppm (Euschistus heros)

CCNS(=O)(=O)N1C[C@@H](NC(=O)c2ccc(C3=NO[C@@](c4cc(Cl)c(F)c(Cl)c4)(C(F)(F)F)C3)cc2Cl)CO1 [Compound A124, 2-chloro-4-[(5S)-5-(3,5-dichloro-4-fluoro-phenyl)-5-(trifluoromethyl)-4H-isoxazol-3-yl]-N-[(4R)-2-(ethylsulfamoyl)isoxazolidin-4-yl]benzamide]
≥ 80%: mortality at 200 ppm (Tetranychus urticae; [1]) | mortality at 200 ppm (Myzus persicae; [2]) | percent effect (mortality or growth inhibition) at 200 ppm (Plutella xylostella) | mortality at 200 ppm (Spodoptera littoralis; [3]) | mortality at 200 ppm (Thrips tabaci; [4]) | percent effect (mortality or growth inhibition) at 200 ppm (Diabrotica balteata) | percent effect (mortality or growth inhibition) at 200 ppm (Euschistus heros)

Cc1cc(C2=NO[C@@](c3cc(Cl)c(Cl)c(Cl)c3)(C(F)(F)F)C2)ccc1C(=O)NC1CON(S(=O)(=O)F)C1 (stereo partly drawn) [Compound A106, 4-[[2-methyl-4-[(5S)-5-(3,4,5-trichlorophenyl)-5-(trifluoromethyl)-4H-isoxazol-3-yl]benzoyl]amino]isoxazolidine-2-sulfonyl fluoride]
≥ 80%: mortality at 200 ppm (Tetranychus urticae) | mortality at 200 ppm (Myzus persicae) | percent control (mortality or growth inhibition) at 200 ppm (Plutella xylostella) | mortality at 200 ppm (Spodoptera littoralis) | mortality at 200 ppm (Thrips tabaci) | percent control (mortality or growth inhibition) at 200 ppm (Diabrotica balteata) | percent control (mortality or growth inhibition) at 200 ppm (Euschistus heros)

Cc1cc(C2=NO[C@@](c3cc(Cl)c(F)c(Cl)c3)(C(F)(F)F)C2)ccc1C(=O)NC1CON(S(N)(=O)=O)C1 (stereo partly drawn) [Compound A71]
≥ 80%: mortality at 200 ppm (Tetranychus urticae; [1]) | mortality at 200 ppm (Myzus persicae; [2]) | percent effect (mortality or growth inhibition) at 200 ppm (Plutella xylostella) | mortality at 200 ppm (Spodoptera littoralis; [3]) | mortality at 200 ppm (Thrips tabaci; [4]) | percent effect (mortality or growth inhibition) at 200 ppm (Diabrotica balteata) | percent effect (mortality or growth inhibition) at 200 ppm (Euschistus heros)

CNS(=O)(=O)N1C[C@H](NC(=O)c2ccc(C3=NO[C@@](c4ccc(F)c(C(F)(F)F)c4)(C(F)(F)F)C3)cc2C)CO1 [Compound A181]
≥ 80%: mortality at 200 ppm (Tetranychus urticae; [1]) | mortality at 200 ppm (Myzus persicae; [2]) | percent effect (mortality or growth inhibition) at 200 ppm (Plutella xylostella) | mortality at 200 ppm (Spodoptera littoralis; [3]) | mortality at 200 ppm (Thrips tabaci; [4]) | percent effect (mortality or growth inhibition) at 200 ppm (Diabrotica balteata) | percent effect (mortality or growth inhibition) at 200 ppm (Euschistus heros)

CCS(=O)(=O)N1CC(NC(=O)c2ccc(C3=NO[C@@](c4cc(Cl)c(F)c(Cl)c4)(C(F)(F)F)C3)cc2C)CO1 (stereo partly drawn) [Compound A4]
≥ 80%: mortality at 200 ppm (Tetranychus urticae; [1]) | mortality at 200 ppm (Myzus persicae; [2]) | percent effect (mortality or growth inhibition) at 200 ppm (Plutella xylostella) | mortality at 200 ppm (Spodoptera littoralis; [3]) | mortality at 200 ppm (Thrips tabaci; [4]) | percent effect (mortality or growth inhibition) at 200 ppm (Diabrotica balteata) | percent effect (mortality or growth inhibition) at 200 ppm (Euschistus heros)

Reference: patent publication US10588317B2, “Isoxazoline-substituted benzamides and analogues as insecticides” (priority 2015, dated 2020)
